Experimental data reported in EP1054892B1, “AZOLE PEPTIDOMIMETICS AS THROMBIN RECEPTOR ANTAGONISTS” (Ortho-McNeil Pharmaceutical, Inc., priority 1998, dated 1999).
Numbered stars: 1 amine (or outer) side, 2 acyl side, 3 side chain; on linkers, the order of the positions; unused ones are H or OH. Square brackets hold non-standard residues; d marks the D form. Peptide text beside a SMILES is read from it. Phe(4-F)ψ(2,4-Thz) = O=C(c1csc([C@H](Cc2ccc(F)cc2)N[*:1])n1)[*:2]; hArg = N=C(N)NCCCC[C@H](N)C(=O)O; Cha = N[C@@H](CC1CCCCC1)C(=O)O; Sar = CNCC(=O)O

How the values were obtained:
[1] = test system: gel-filtered platelets; assay: In vitro inhibition of thrombin-induced gel-filtered platelet aggregation; assay type: cell-based; settings: agonist thrombin, gel-filtered human platelets, read-out: Platelet Aggregation** IC50 Thr*
Experimental: IN VITRO INHIBITION OF THROMBIN-INDUCED GEL-FILTERED PLATELET AGGREGATION ASSAY.
The percentage of platelet aggregation is calculated as an increase in light transmission of compound-treated platelet concentrate vs. control-treated platelet concentrate. Human blood is obtained from drug free, normal donors in tubes containing 0.13 M sodium citrate. Platelet rich plasma (PRP) is collected by centrifugation of whole blood at 200 x g for 10 min at 25°C. The PRP (5 mL) is gel filtered through Sepharose 2B (bed volume 50 mL), and the platelet count is adjusted to 2x10^7 platelets per sample. The following constituents are added to a siliconized cuvette: concentrated platelet filtrate and Tyrode's buffer (0.14 M NaCI, 0.0027 M KCI, 0.012 M NaHCO3, 0.76 mM Na2HPO4, 0.0055 M glucose, 2 mg/mL BSA and 5.0 mM HEPES @ pH 7.4) in an amount equal to 350 µl, 50 µl of 20 mM calcium and 50 µl of the test compound. Aggregation is monitored in a BIODATA aggregometer for the 3 min following the addition of agonist (thrombin 50 µl of 1 unit/mL).
The table contains IC50 values (µM) of the compounds in a thrombin receptor binding assay, and IC50 values (µM) against platelet aggregation stimulated by two agonists, thrombin or SFLLRN-NH2 (TRAP).
* µM ** Thrombin-induced aggregation of gel-filtered platelets in µM.

[2] = test system: gel-filtered platelets; assay: In vitro inhibition of SFLLRN-NH2 (TRAP)-stimulated gel-filtered platelet aggregation; assay type: cell-based; settings: agonist SFLLRN-NH2 (TRAP), gel-filtered human platelets
[3] = biological target: T1, thrombin receptor (Homo sapiens, UniProt P25116); assay: In vitro thrombin receptor binding assay (CHRF membranes, tritiated 721-40); settings: displacement of tritiated 721-40 (Ser-pFPhe-Har-Leu-Har-Lys-Tyr-NH2), read-out: Thr Receptor Binding IC50*
T1 construct: CHRF membranes (Jones, Biochim. Biophys. Acta 1992, 1136, 272) are thawed from -70°C; endogenous in cells; host or cells: CHRF cell membranes
T1 sequence (P25116 22-425): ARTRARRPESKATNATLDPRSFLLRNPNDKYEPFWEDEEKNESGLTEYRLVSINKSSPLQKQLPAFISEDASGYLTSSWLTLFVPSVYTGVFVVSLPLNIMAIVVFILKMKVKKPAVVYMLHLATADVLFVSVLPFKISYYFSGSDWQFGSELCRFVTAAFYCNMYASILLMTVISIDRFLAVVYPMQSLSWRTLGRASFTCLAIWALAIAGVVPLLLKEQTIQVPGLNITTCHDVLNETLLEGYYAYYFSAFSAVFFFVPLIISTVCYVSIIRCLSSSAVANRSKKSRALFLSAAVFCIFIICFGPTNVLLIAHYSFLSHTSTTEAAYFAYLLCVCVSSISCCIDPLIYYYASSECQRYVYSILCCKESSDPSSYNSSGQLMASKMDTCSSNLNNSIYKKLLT
Experimental: IN VITRO THROMBIN RECEPTOR BINDING ASSAY.
CHRF membranes (Jones, Biochim. Biophys. Acta 1992, 1136, 272) are thawed from -70°C, centrifuged at maximum speed for 5 min, washed twice with binding buffer (50 mM HEPES containing 5 mM MgCl2 and 0.1% BSA), and re-suspended in binding buffer ([…]). 100 µl of membranes are added to the 24-Wallac plates and delivered to the Tomtech apparatus. In a typical experiment, 6 µl of samples (from a 125 µg/mL intermediary plate, 20%DMSO) and 44 µl buffer are delivered to the plates (final conc. of compounds is 3.7 µg/mL, 0.6% DMSO). Similarly, 6 µl 20%DMSO and 44 µl buffer are delivered to both column 1 (NSB) and column 12 (TB). 10 µl Ser-pFPhe-Har-Leu-Har-Lys-Tyr-NH2 (721-40; 500 µM in deionized water) is added to column 1.50 µl tritiated 721-40 (specific activity 46 Ci/mmol) is added to all the wells. The plates are mixed well for 20 seconds, incubated for 30 min, and then harvested with 10 mM HEPES/138 mM NaCl using the Skatron harvester. The filters (GF/C Brandel FPXLR 296) are presoaked 3 h in 0.5% polyethylenimine in HEPES/0.1 M N-acetylglucosamine) are set in saran wrap and dried for 3 min in the microwave, and placed in sample bags (Wallac 1450-432). 4.5 mL scintillation fluid (Wallac, Betaplate Scint 1205-440) is added. The bags are sealed, placed in filter cassettes (Wallac 1450-104), and analyzed on the microbeta counter. […]

Row | SMILES | IC50 ([1]; Platelet) [µM] | IC50 ([2]; Platelet) [µM] | IC50 [3] [µM] | IC50 [1] [µM] | IC50 [2] [µM]
1 | CNCC(=O)N[C@@H](Cc1ccc(F)cc1)c1nc(C(=O)N[C@@H](CC2CCCCC2)C(=O)N[C@@H](CCCNC(=N)N)C(=O)NCc2ccccc2)co1 [Compound 1, 2-[1(S)-Sarcosineamido-2-(4-fluorophenyl)ethyl]oxazole-4-carboxy-cyclohexylalanyl-arginine benzylamide] | 25 | 10 |  |  | 
2 | N=C(N)NCCC[C@H](NC(=O)[C@H](CC1CCCCC1)NC(=O)c1coc([C@H](Cc2ccc(F)cc2)NC(=O)CCN)n1)C(=O)NCc1ccccc1 [Compound 2, 2-[1(S)-β-Alanineamido-2-(4-fluorophenyl)ethyl]oxazole-4-carboxycyclohexylalanyl-arginine benzylamide] | 10 | 7 |  |  | 
3 | CNCC(=O)N[C@@H](Cc1ccc(F)cc1)c1nc(C(=O)N[C@@H](CC2CCCCC2)C(=O)N[C@@H](CCCNC(=N)N)C(=O)NCCc2ccccc2)cs1 [Compound 3, 2-[1(S)-Sarcosineamido-2-(4-fluorophenyl)ethyl]thiazole-4-carboxycyclohexylalanyl-arginine phenethylamide] | 12 | 0.6 |  |  | 
4 | CNCC(=O)N[C@@H](Cc1ccc(F)cc1)c1nc(C(=O)N[C@@H](CC2CCCCC2)C(=O)N[C@@H](CCCCNC(=N)N)C(=O)N[C@@H](Cc2ccccc2)C(N)=O)cs1 [Compound 4] (H-[Sar][Phe(4-F)ψ(2,4-Thz)][Cha][hArg]F-NH2) | 45 |  | 5 |  | 
5 | CC[C@H](C)[C@H](N)C(=O)N[C@@H](Cc1ccc(F)cc1)c1nc(C(=O)N[C@@H](CC2CCCCC2)C(=O)N[C@@H](CCCNC(=N)N)C(=O)N[C@@H](Cc2ccccc2)C(N)=O)cs1 [Compound 5] (H-I[Phe(4-F)ψ(2,4-Thz)][Cha]RF-NH2) | 43 | 9 |  |  | 
6 | CNCC(=O)N[C@@H](Cc1ccc(F)cc1)c1nc(C(=O)N[C@@H](CCCCN)C(=O)N[C@@H](CCCNC(=N)N)C(=O)NCCc2ccccc2)cs1 [Compound 6, 2-[1(S)-Sarcosineamido-2-(4-fluorophenyl)ethyl]thiazole-4-carboxy-lysyl-arginine phenethylamide] | 26 | 4 |  |  | 
7 | CNCC(=O)N[C@@H](Cc1ccc(F)cc1)c1nc(C(=O)N[C@@H](CC2CCCCC2)C(=O)N[C@@H](CCCNC(=N)N)C(=O)NCc2ccccc2)c(C)o1 [Compound 7, 2-[1(S)-Sarcosineamido-2-(4-fluorophenyl)ethyl]-5-methyloxazole-4-carboxy-cyclohexylalanyl-arginine benzylamide] | 19 | 22 |  |  | 
8 | Cc1oc(C(Cc2ccc(F)cc2)NC(=O)C(N)Cc2cn(Cc3ccccc3)cn2)nc1C(=O)NC(CC1CCCCC1)C(=O)NC(CCCNC(=N)N)C(=O)NCc1ccccc1 [Compound 8, 2-[1(S)-N(tau)-Benzyl-histidineamido-2-(4-fluorophenyl)ethyl]-5-methyloxazole-4-carboxy-cyclohexylalanyl-arginine benzylamide] | 13 | 5 |  |  | 
9 | CC(=O)N[C@@H](Cc1ccc(F)cc1)c1nc(C(=O)N[C@@H](CC2CCCCC2)C(=O)N[C@@H](CCCNC(=N)N)C(=O)NCc2ccccc2)c(C)o1 [Compound 9, 2-[1(S)-Acetamido-2-(4-fluorophenyl)ethyl]-5-methyloxazole-4-carboxy-cyclohexylalanyl-arginine benzylamide] | 24 | 11 |  |  | 
10 | Cc1oc([C@H](Cc2ccc(F)cc2)N(C)C)nc1C(=O)N[C@@H](CC1CCCCC1)C(=O)N[C@@H](CCCNC(=N)N)C(=O)NCc1ccccc1 [Compound 10, 2-[1(S)-N,N-Dimethyl-2-(4-fluorophenyl)ethyl]-5-methyloxazole-4-carboxy-cyclohexylalanyl-arginine benzylamide] |  |  |  | 11 | 17
